Measured values reported in PubChem BioAssay (NCI).
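Test compounds were applied to cells in 96-well plates for 48 hours at 5 doses. Definition used: TGI = concentration required for complete inhibition of growth.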 Where a SMILES comes first, the peptide text is derived from it. [ ]: non-standard residue; d: D form. The star is where a group is joined. ξ: configuration not given here. ξF = NC(Cc1ccccc1)C(=O)O; Cbz = O=C(OCc1ccccc1)*

Columns and labels:
Test in all cases: DTP human tumour cell line panel, 48 h
MOLT-4 leukemia = test system: MOLT-4 leukemia
UACC-257 melanoma = test system: UACC-257 melanoma
SK-OV-3 ovarian = test system: SK-OV-3 ovarian
SF-539 CNS = test system: SF-539 CNS
OVCAR-3 ovarian = test system: OVCAR-3 ovarian
A498 renal = test system: A498 renal
IGROV1 ovarian = test system: IGROV1 ovarian
SR leukemia = test system: SR leukemia
MDA-N = test system: MDA-N
M14 melanoma = test system: M14 melanoma
DU-145 prostate = test system: DU-145 prostate
SK-MEL-2 melanoma = test system: SK-MEL-2 melanoma
UACC-62 melanoma = test system: UACC-62 melanoma

For CC(=O)c1ccc(N=NN2CCCC2)cc1, the TGI (MOLT-4 leukemia) was > 100 µM, the TGI (UACC-257 melanoma) was > 100 µM and the TGI (SK-OV-3 ovarian) was > 100 µM. For the same compound, the TGI (SF-539 CNS) was > 100 µM, the TGI (OVCAR-3 ovarian) was > 100 µM and the TGI (A498 renal) was 37.3 µM. The TGI (IGROV1 ovarian) was > 100 µM, the TGI (SR leukemia) was > 100 µM and the TGI (MDA-N) was > 100 µM. For the same compound, the TGI (M14 melanoma) was > 100 µM, the TGI (DU-145 prostate) was > 100 µM and the TGI (SK-MEL-2 melanoma) was > 100 µM. The TGI (UACC-62 melanoma) was > 100 µM.

With Cc1cc(C)c(-c2no/c(=N\S(=O)(=O)c3ccc(Cl)cc3)o2)c(C)c1 the TGI (MOLT-4 leukemia) was > 100 µM, the TGI (UACC-257 melanoma) was > 100 µM and the TGI (SK-OV-3 ovarian) was > 100 µM. For the same compound, the TGI (SF-539 CNS) was > 100 µM, the TGI (OVCAR-3 ovarian) was > 100 µM and the TGI (A498 renal) was > 100 µM. For the same compound, the TGI (IGROV1 ovarian) was > 100 µM, the TGI (SR leukemia) was 55 µM and the TGI (MDA-N) was > 100 µM. The TGI (M14 melanoma) was > 100 µM, the TGI (DU-145 prostate) was > 100 µM and the TGI (SK-MEL-2 melanoma) was > 100 µM. For the same compound, the TGI (UACC-62 melanoma) was > 100 µM.

CC(=O)c1ccc(Nc2c3c(nc4ccccc24)CCCC3)cc1 was tested, and the TGI (MOLT-4 leukemia) was 73.8 µM, the TGI (UACC-257 melanoma) was > 74 µM and the TGI (SK-OV-3 ovarian) was > 70.8 µM. The TGI (SF-539 CNS) was > 100 µM, the TGI (OVCAR-3 ovarian) was > 44.7 µM and the TGI (A498 renal) was > 59.7 µM. For the same compound, the TGI (IGROV1 ovarian) was 23.8 µM, the TGI (SR leukemia) was 74.2 µM and the TGI (MDA-N) was 11.2 µM. The TGI (M14 melanoma) was 41.7 µM, the TGI (DU-145 prostate) was > 65 µM and the TGI (SK-MEL-2 melanoma) was > 100 µM. For the same compound, the TGI (UACC-62 melanoma) was > 56 µM.

For S=C1Cc2c(-c3ccccc3)cc(-c3cccc(Cl)c3)nc2-c2ccccc2N1, the TGI (MOLT-4 leukemia) was > 90.2 µM, the TGI (UACC-257 melanoma) was 35 µM and the TGI (SK-OV-3 ovarian) was 17.4 µM. It also gave a TGI (SF-539 CNS) of 8.54 µM, a TGI (OVCAR-3 ovarian) of 25.9 µM and a TGI (A498 renal) of 10.4 µM. It also gave a TGI (IGROV1 ovarian) of 4.56 µM, a TGI (SR leukemia) of 46.9 µM and a TGI (MDA-N) of 26.5 µM. For the same compound, the TGI (M14 melanoma) was > 49.7 µM, the TGI (DU-145 prostate) was 38.9 µM and the TGI (SK-MEL-2 melanoma) was 28.4 µM. It also gave a TGI (UACC-62 melanoma) of 5.36 µM.

COc1ccccc1C1c2cc3c(cc2OC2(OC)COC(=O)C12)OCO3 (centres undefined) was tested, and the TGI (MOLT-4 leukemia) was > 46.2 µM, the TGI (UACC-257 melanoma) was > 100 µM and the TGI (SK-OV-3 ovarian) was 70.1 µM. For the same compound, the TGI (SF-539 CNS) was 33.4 µM, the TGI (OVCAR-3 ovarian) was 69.3 µM and the TGI (A498 renal) was 54.4 µM. The TGI (IGROV1 ovarian) was > 100 µM, the TGI (SR leukemia) was > 28.8 µM and the TGI (MDA-N) was 5.51 µM. For the same compound, the TGI (M14 melanoma) was 43.3 µM, the TGI (DU-145 prostate) was 69.4 µM and the TGI (SK-MEL-2 melanoma) was 55.6 µM. The TGI (UACC-62 melanoma) was 60.1 µM.

CN=c1sc2c(n1C)C(=O)c1ccccc1C2=O was tested, and the TGI (MOLT-4 leukemia) was 26.5 µM, the TGI (UACC-257 melanoma) was 4.59 µM and the TGI (SK-OV-3 ovarian) was 77.9 µM. The TGI (SF-539 CNS) was 4.2 µM, the TGI (OVCAR-3 ovarian) was 11.3 µM and the TGI (A498 renal) was 30.1 µM. The TGI (IGROV1 ovarian) was > 41.6 µM, the TGI (SR leukemia) was 8.97 µM and the TGI (MDA-N) was 0.467 µM. The TGI (M14 melanoma) was 3.01 µM, the TGI (DU-145 prostate) was 3.12 µM and the TGI (SK-MEL-2 melanoma) was 6.14 µM.

With COC(CN(C)C(=S)Nc1cccc2ccccc12)OC the TGI (MOLT-4 leukemia) was > 10 µM, the TGI (UACC-257 melanoma) was > 10 µM and the TGI (SK-OV-3 ovarian) was > 10 µM. The TGI (SF-539 CNS) was > 10 µM, the TGI (OVCAR-3 ovarian) was > 10 µM and the TGI (A498 renal) was > 10 µM. The TGI (IGROV1 ovarian) was > 10 µM, the TGI (SR leukemia) was > 10 µM and the TGI (MDA-N) was > 10 µM. The TGI (M14 melanoma) was > 10 µM, the TGI (DU-145 prostate) was > 10 µM and the TGI (SK-MEL-2 melanoma) was > 10 µM. For the same compound, the TGI (UACC-62 melanoma) was > 10 µM.

O=c1c(-c2ccccc2)nnc2n(Cc3ccccc3)c3ccccc3n12 was tested, and the TGI (MOLT-4 leukemia) was > 100 µM, the TGI (UACC-257 melanoma) was > 100 µM and the TGI (SF-539 CNS) was > 100 µM. For the same compound, the TGI (A498 renal) was > 100 µM, the TGI (IGROV1 ovarian) was > 100 µM and the TGI (SR leukemia) was > 100 µM. For the same compound, the TGI (MDA-N) was > 100 µM, the TGI (M14 melanoma) was > 100 µM and the TGI (DU-145 prostate) was > 100 µM. The TGI (SK-MEL-2 melanoma) was > 100 µM.

CCOC(=O)c1cn(CC)c(=O)n2c1nc1ccccc12 was tested, and the TGI (MOLT-4 leukemia) was > 100 µM, the TGI (UACC-257 melanoma) was > 100 µM and the TGI (SF-539 CNS) was > 100 µM. For the same compound, the TGI (OVCAR-3 ovarian) was > 100 µM, the TGI (A498 renal) was > 100 µM and the TGI (IGROV1 ovarian) was > 100 µM. The TGI (SR leukemia) was > 100 µM, the TGI (MDA-N) was > 100 µM and the TGI (M14 melanoma) was > 100 µM. For the same compound, the TGI (DU-145 prostate) was > 100 µM, the TGI (SK-MEL-2 melanoma) was > 100 µM and the TGI (UACC-62 melanoma) was > 100 µM.

For COC(=O)/C=C/c1ccc(OP(=O)(O)O)c(OC)c1, the TGI (MOLT-4 leukemia) was > 100 µM, the TGI (UACC-257 melanoma) was > 100 µM and the TGI (SK-OV-3 ovarian) was > 100 µM. For the same compound, the TGI (SF-539 CNS) was > 100 µM, the TGI (OVCAR-3 ovarian) was > 100 µM and the TGI (A498 renal) was > 100 µM. For the same compound, the TGI (IGROV1 ovarian) was > 100 µM, the TGI (SR leukemia) was > 100 µM and the TGI (MDA-N) was > 100 µM. For the same compound, the TGI (M14 melanoma) was > 100 µM, the TGI (DU-145 prostate) was > 100 µM and the TGI (SK-MEL-2 melanoma) was > 100 µM. The TGI (UACC-62 melanoma) was > 100 µM.

With C[C@@H]1CC[C@]2(C)C3(C)CC[C@]2(OC3=O)[C@@]12CC(c1ccoc1)OC2=O (some centres undefined) the TGI (MOLT-4 leukemia) was 84.4 µM, the TGI (SK-OV-3 ovarian) was > 100 µM and the TGI (SF-539 CNS) was 59.2 µM. The TGI (OVCAR-3 ovarian) was 58.2 µM, the TGI (A498 renal) was > 100 µM and the TGI (IGROV1 ovarian) was 64.7 µM. For the same compound, the TGI (SR leukemia) was 81 µM, the TGI (MDA-N) was > 100 µM and the TGI (M14 melanoma) was 57.2 µM. The TGI (DU-145 prostate) was > 100 µM, the TGI (SK-MEL-2 melanoma) was > 100 µM and the TGI (UACC-62 melanoma) was > 100 µM.

In the case of CCOC(=O)CNC(=O)C(Cc1ccccc1)NC(=O)OCc1ccccc1 (centres undefined) (Cbz-[ξF]-Gly-OEt), the TGI (MOLT-4 leukemia) is reported as > 100 µM, the TGI (SK-OV-3 ovarian) is reported as > 100 µM and the TGI (OVCAR-3 ovarian) is reported as > 100 µM. For the same compound, the TGI (A498 renal) was > 100 µM, the TGI (IGROV1 ovarian) was > 100 µM and the TGI (SR leukemia) was > 100 µM. For the same compound, the TGI (MDA-N) was > 100 µM, the TGI (M14 melanoma) was > 100 µM and the TGI (DU-145 prostate) was > 100 µM.

In the case of COc1ccc(CCCCNCc2cccc(CNCCCCc3ccc(OC)cc3)c2)cc1, the TGI (MOLT-4 leukemia) is reported as 6.86 µM, the TGI (UACC-257 melanoma) is reported as > 19.7 µM and the TGI (SK-OV-3 ovarian) is reported as 4.02 µM. The TGI (OVCAR-3 ovarian) was 3.37 µM, the TGI (IGROV1 ovarian) was 3.32 µM and the TGI (SR leukemia) was > 100 µM. For the same compound, the TGI (MDA-N) was 4.25 µM, the TGI (M14 melanoma) was 3.5 µM and the TGI (DU-145 prostate) was 3.54 µM. The TGI (SK-MEL-2 melanoma) was 3.53 µM and the TGI (UACC-62 melanoma) was 3.55 µM.

For CC(N)(CC(O)(C(F)(F)Cl)C(F)(F)Cl)C(=O)O (centres undefined), the TGI (MOLT-4 leukemia) was > 10 µM, the TGI (UACC-257 melanoma) was > 10 µM and the TGI (SK-OV-3 ovarian) was > 10 µM. The TGI (SF-539 CNS) was > 10 µM, the TGI (OVCAR-3 ovarian) was > 10 µM and the TGI (A498 renal) was > 10 µM. The TGI (IGROV1 ovarian) was > 10 µM, the TGI (SR leukemia) was > 10 µM and the TGI (MDA-N) was > 10 µM. For the same compound, the TGI (M14 melanoma) was > 10 µM, the TGI (DU-145 prostate) was > 10 µM and the TGI (UACC-62 melanoma) was > 10 µM.
